These results are taken from paper PMC4109950, “Novel Small Molecule XPO1/CRM1 Inhibitors Induce Nuclear Accumulation of TP53, Phosphorylated MAPK and Apoptosis in Human Melanoma Cells” (PLoS ONE, 2014).

What is called IC50 is the concentration that gives 50% inhibition. As a reminder, the Tmax is the time from dosing to the highest level.

The subject of one data set is A375 xenografts. Kind of data set: Immunohistochemical staining of xenografts. It counts as in vivo, NOD/SCID mice. To be noted: treated one week. The procedure: (§1) All animal studies were conducted under a protocol (2009A0178-R1) approved by The Ohio State University Institutional Animal Care and Use Committee (IACUC). A subcutaneous (s.c.) tumor model of melanoma was employed to determine whether treatment with the orally bioavailable SINE compounds, KPT-276 (preclinical tool compound) or KPT-330 (currently in Phase 1 studies in humans with advanced cancers), would be effective in decreasing tumor growth in vivo. Female NOD/SCID mice (n = 6 mice/group; 6-8 weeks of age; Jackson Laboratory, Bar Harbor, ME) were injected subcutaneously (s.c.) in the right flank with 2×10^6 human A375 or CHL-1 melanoma cells (Day 0). Once tumors were palpable, mice were randomized to one of […] treatment groups: [a] diluent, [b] KPT-276 (75 mg/kg), or [c] KPT-330 (15 mg/kg). All treatments were administered via oral gavage in a volume of 200 µL three times weekly (Monday, Wednesday, Friday). Bi-dimensional tumor measurements were obtained three times weekly using microcalipers. Mice were euthanized and tumors were collected from all animals once diluent-treated tumors reached a volume of 1500 mm^3. For histology studies, a subset of animals (n = 2–3/group) were treated with diluents, KPT-276, or KPT-330 for one week, after which tumors were collected to avoid necrosis. The weights of all animals receiving diluent, KPT-276 or KPT-330 were monitored for dosing and to assess toxicity throughout the study.
(§2) For analysis of XPO1 expression in human samples, an unstained (5 µm) slide of a commercially available tissue microarray (1 mm cores) containing 56 cases of primary melanoma, 20 cases of metastatic melanoma, and 24 cases diagnosed as nevus (US Biomax, Inc., Catalog #ME1004a) was subjected to immunohistochemical analysis using an antibody targeting XPO1 (Santa Cruz H-300, sc-5595, lot # D0110) according to manufacturer's recommendations (1∶50). For mouse studies, tumor xenografts were fixed in formalin, embedded in paraffin, a sectioned at 4 µm with two sections per slide. […] All samples were analyzed in a blinded fashion by an experienced pathologist (Dr. Krista La Perle). Automatic quantification of immunoreactivity in viable portions of xenograft tissue samples and tissue cores segmented with the TMA Lab (Aperio Technologies, Vista, CA) was performed on whole slide images scanned at 40× magnification (ScanScope XT, Aperio Technologies) using the Positive Pixel Count Algorithm in the ImageScope software, as well as the Color Deconvolution and Cytoplasmic algorithms available in the Image Analysis Toolbox (Aperio Technologies).

Another data set relates to CHL-1 xenografts. Nature of the data set: Immunohistochemical staining of xenografts. It is filed as in vivo, NOD/SCID mice. The note with it: treated one week. The protocol:
as §1, §2

For data set [1], the system named is A375. Kind of data set: Apoptosis via Annexin V/PI staining, flow cytometry. To be noted: Homo sapiens, A-375, A375, 72 hr treatment. It is filed as cell-based. The protocol:
(§3) Phosphatidyl serine exposure was assessed in tumor cells and melanocytes by flow cytometry using APC-Annexin V and propidium iodide (PI; BD Pharmingen, San Diego, CA) as previously described. Each analysis was performed utilizing at least 10,000 events. We considered the Annexin V positive cells (early apoptosis) and Annexin V/PI double positive cells (late apoptosis) cells as the apoptotic cell population. The 4-parameter logistic or Hill model was the assumed dose-response relationship for the in vitro inhibition and cell viability experiments. Nonlinear least squares regression was used to estimate the model parameters and generate 95% confidence intervals for the IC50 estimates. For in vivo experiments, tumor volumes were first log-transformed to meet test assumptions of normality and homoscedasticity. Changes in tumor volumes were analyzed using a two-sample t-test to evaluate the difference from first day of treatment to the last for A375 xenografts (day 17), and from day 1 to day 10 for CHL-1 xenografts as day 10 marks the first mouse sacrificed when 1500 mm^3 tumor volume was reached. ANOVA was used to compare the expression of XPO1 staining among samples from the melanoma tissue core array. The Wilcoxon rank-sum test was used to analyze data comparing growth inhibition and apoptosis of the five metastatic melanoma cell lines to the three melanocyte cell lines.
For orientation: A flow cytometer gives signals particle by particle.

The subject of data set [2] is CHL-1. The data set is described as above. It counts as cell-based. To be noted: Homo sapiens, CHL-1, 72 hr treatment. The procedure: as §3
The nature of data set [3]: Body weight of tumor-bearing mice during oral treatment. The note with it: oral treatment three times weekly, KPT-276 75 mg/kg or KPT-330 15 mg/kg, n = 6. It is filed as in vivo, NOD/SCID mice. The procedure:
as §1, with “For histology studies, a subset of animals (n = 2–3/group) were treated with diluents, KPT-276, or KPT-330 for one week, after which tumors were collected to avoid necrosis.” left out

In data set [4] the test system is A375. Nature of the data set: Cellular growth assay (MTS), 72 h. It is filed as cell-based, human. To be noted: Homo sapiens, A-375, 72 h, A375, 72 hr treatment, read-out: Growth Inhibition IC50. The protocol: (§4) Cells were seeded in 96-well plates (2×10^4) in triplicate and allowed to adhere overnight. Fresh media containing KPT-185, KPT-185-trans, KPT-276, or KPT-330 was added to each well at various concentrations (range = 40–10240 nM) and cells were incubated at 37°C/5% CO2 for 72 hours. Cells treated with DMSO (diluent) and untreated cells served as controls. At this time, the percentage of cell growth was evaluated using the MTS assay (CellTiter 96 AQueous Non-Radioactive Cell Proliferation Assay, Promega) and quantified by determining the optical density at 595 nm using a Bio-Rad iMark™ microplate reader. The 4-parameter logistic or Hill model was the assumed dose-response relationship for the in vitro inhibition and cell viability experiments. Nonlinear least squares regression was used to estimate the model parameters and generate 95% confidence intervals for the IC50 estimates. For in vivo experiments, tumor volumes were first log-transformed to meet test assumptions of normality and homoscedasticity. Changes in tumor volumes were analyzed using a two-sample t-test to evaluate the difference from first day of treatment to the last for A375 xenografts (day 17), and from day 1 to day 10 for CHL-1 xenografts as day 10 marks the first mouse sacrificed when 1500 mm^3 tumor volume was reached. ANOVA was used to compare the expression of XPO1 staining among samples from the melanoma tissue core array. The Wilcoxon rank-sum test was used to analyze data comparing growth inhibition and apoptosis of the five metastatic melanoma cell lines to the three melanocyte cell lines.

The subject of data set [5] is CHL-1. Kind of data set: Cellular growth assay (MTS), 72 h. It is filed as cell-based, human. The procedure: as §4
On the set-up of data set [6]: method as in personal communication, Karyopharm Therapeutics, Inc. The note with it: CD1 mice, oral, 10 mg/kg; ref personal communication, Karyopharm Therapeutics, Inc.; cited from earlier work.
Data set [7] concerns human A375 melanoma xenografts. Nature of the data set: Subcutaneous melanoma xenograft tumor growth. It is filed as in vivo, NOD/SCID mice. The note with it: oral gavage three times weekly, KPT-276 75 mg/kg or KPT-330 15 mg/kg, p<0.0001 for both. The procedure:
as §1
as §3, with “The” for “Phosphatidyl serine exposure was assessed in tumor cells and melanocytes by flow cytometry using APC-Annexin V and propidium iodide (PI; BD Pharmingen, San Diego, CA) as previously described. Each analysis was performed utilizing at least 10,000 events. We considered the Annexin V positive cells (early apoptosis) and Annexin V/PI double positive cells (late apoptosis) cells as the apoptotic cell population. The”

For data set [8], the system named is human CHL-1 melanoma xenografts. Kind of data set: Subcutaneous melanoma xenograft tumor growth. It counts as in vivo, NOD/SCID mice. To be noted: CHL-1 xenograft, oral gavage three times weekly, KPT-276 75 mg/kg (p = 0.0087) or KPT-330 15 mg/kg (p = 0.0002). The procedure: as §1
as §3, with “The” for “Phosphatidyl serine exposure was assessed in tumor cells and melanocytes by flow cytometry using APC-Annexin V and propidium iodide (PI; BD Pharmingen, San Diego, CA) as previously described. Each analysis was performed utilizing at least 10,000 events. We considered the Annexin V positive cells (early apoptosis) and Annexin V/PI double positive cells (late apoptosis) cells as the apoptotic cell population. The”

The test system of data set [9] is A375 and CHL-1 cell lines. Nature of the data set: Immunoblot of TP53, CDKN1A after etoposide. It counts as cell-based, human. The note with it: 20 µM etoposide, 24 hours. The procedure: Human melanoma cell lines were seeded in 6-well plates (2×10^5) and allowed to adhere overnight. After treatment for various time points, the cells were harvested then fractionated using NE-PER Nuclear and Cytoplasmic Extraction Reagents from Thermo Scientific following the manufacturer's protocol. Nuclear and cytoplasmic fractions were validated via immunoblot analysis using Lamin B and GAPDH antibodies.
Immunoblots were prepared as previously described and probed with antibodies specific for TP53, CDKN1A (p21), XPO1, HDM2 (MDM2), Lamin B (Santa Cruz Biotechnology, Santa Cruz, CA), pMAPK, PARP (Cell Signaling Technology), GAPDH or β-actin (Sigma). Following incubation with the appropriate horseradish peroxidase-conjugated secondary antibody, immune complexes were detected using the ECL Plus detection kit (Amersham Biosciences, Ayesbury, UK).
Supplementary file pone.0102983.s001.tif: Figure S1 Localization of TP53, CDKN1A, and pMAPK in melanoma cell lines with etoposide. A375 and CHL-1 cell lines were treated with 20 µM of etoposide and harvested after 24 hours of treatment. Lysates were evaluated via immunoblot analysis. Lamin B and GAPDH serve as loading controls for nuclear and cytoplasmic compartments respectively. The data shown are representative of 2 to 3 independent biological experiments. (TIF) Click here for additional data file.
For orientation: A western blot detects proteins with antibodies after separation by electrophoresis.

For `O=C(/C=C\n1cnc(-c2cc(C(F)(F)F)cc(C(F)(F)F)c2)n1)N1CC(F)(F)C1` [KPT-276], the Ki67 staining entry in the data set with A375 xenografts and in the data set with CHL-1 xenografts was “No significant changes” throughout. Also, in the data set with A375 xenografts (n = 3 vs 2), the “Levels of nuclear TP53 and pMAPK (IHC)” value was “trend towards increased levels”. For the same compound, in the data set on CHL-1 xenografts (high basal expression), the “TP53 expression (IHC)” value is “did not change”. In addition, the IC50 stood at 233 nM with A375 [1], 6130 nM with CHL-1 [2] and 321 nM in the data set on A375 [4]. In [3], the “Body weights of mice during treatment” value is “remained constant”. Besides, the “IC57 value (cytostatic effect)” value in the data set with CHL-1 [5] (CHL-1, 72 hours) was 3.8794 µM. Further, the Bioavailability in [6] was over 90%. Also, the “Level at Tmax” value in data set [6] was “roughly 2.5 micromolar”. Besides, the Tmax in data set [6] was 60 min. Also, the “Tumor growth vs diluent” value in data set [7] and in [8] was “significantly inhibited growth” each time.
Turning to `O=C(/C=C\n1cnc(-c2cc(C(F)(F)F)cc(C(F)(F)F)c2)n1)NNc1cnccn1` [KPT-330], the half-inhibitory concentration (IC50) in the data set on A375 [1] was 112 nM; in the data set with CHL-1 [2] it was 7690 nM; with A375 [4], 120 nM; in the data set with CHL-1 [5] (Homo sapiens, CHL-1, 72 hr treatment, read-out: Growth Inhibition IC50), 7530 nM. In [3], the “Body weights of mice during treatment” value is recorded as “remained constant”. Moreover, in [6], the Bioavailability is about 60%. Besides, the “Level at Tmax” value in [6] is on record as “roughly 2.5 micromolar”. Besides, the Tmax in [6] was 30 min. In addition, the “Tumor growth vs diluent” value in data set [7] and in [8] was “significantly inhibited” each time.
For `COc1cc([C@@H]2c3cc4c(cc3[C@@H](O[C@@H]3O[C@@H]5CO[C@@H](C)O[C@H]5[C@H](O)[C@H]3O)[C@H]3COC(=O)[C@H]23)OCO4)cc(OC)c1O` [etoposide, Etoposide], the “TP53 upregulation and downstream activation of CDKN1A” value in data set [9] was “induced TP53 upregulation”.
